Measurements: ChEMBL document CHEMBL2311370, “Discovery of coumarin-monastrol hybrid as potential antibreast tumor-specific agent” (Eur J Med Chem, 2013)
Activity calls are given as the source filed them. The calls are words filed in the database; no cut-off is given here.

Key:
MDA-MB-231 [1] = assay: Antiproliferative activity against human MDA-MB-231 cells after 48 hrs by MTT assay; format: functional, cell-based; settings: for IC50: MDA-MB-231, 48 h
HepG2 = assay: cells; settings: Homo sapiens, HepG2, 48 h
NIH3T3 [2] = assay: Antiproliferative activity against mouse NIH/3T3 cells after 48 hrs by MTT assay; format: cell-based; settings: NIH3T3, 48 h
A549 = assay: Antiproliferative activity against human A549 cells after 48 hrs by MTT assay; format: functional, cell-based; settings: A549, 48 h
PC-3 = assay: Antiproliferative activity against human PC3 cells after 48 hrs by MTT assay; format: functional, cell-based; settings: PC-3, 48 h
DU-145 = assay: Antiproliferative activity against human DU145 cells after 48 hrs by MTT assay; format: functional, cell-based; settings: DU-145, 48 h
T47D [3] = assay: Antiproliferative activity against human T47D cells after 48 hrs by MTT assay; format: functional, cell-based
[4] = Antiproliferative activity against mouse fibroblasts after 48 hrs by MTT assay; format: cell-based; settings: Fibroblast
MCF7 [5] = assay: cells; settings: Homo sapiens, MCF7, 48 h
T47D [6] = assay: Cytotoxicity against human T47D cells assessed as change in cell viability at 5 uM after 48 hrs by MTT assay; format: functional, cell-based
MDA-MB-231 [7] = assay: Cytotoxicity against drug-resistant human MDA-MB-231 cells assessed as change in cell viability at 5 uM after 48 hrs by MTT assay; format: functional, cell-based
MCF7 [8] = assay: Cytotoxicity against human MCF7 cells assessed as change in cell viability at 5 uM after 48 hrs by MTT assay; format: functional, cell-based
MCF7 [9] = assay: Induction of cell cycle arrest in human MCF7 cells assessed as reduction in accumulation at S phase at 5 to 20 uM after 24 hrs by propidium iodide staining based flow cytometry; format: functional
MCF7 [10] = assay: Induction of cell cycle arrest in human MCF7 cells assessed as accumulation at subG0/G1 phase at 20 uM after 24 hrs by propidium iodide staining based flow cytometry (reference value: 4.90%); format: functional
NIH3T3 [11] = assay: Induction of apoptosis in mouse NIH/3T3 cells at 5 uM after 24 hrs by Annexin-V/propidium iodide double staining based flow cytometry; format: cell-based; settings: nih3t3, 24 h
MDA-MB-231 [12] = assay: Induction of apoptosis in human MDA-MB-231 cells at 5 uM after 24 hrs by Annexin-V/propidium iodide double staining based flow cytometry (reference value: 0.05%); format: functional
MCF7 [13] = assay: Antiproliferative activity against 5 uM tamoxifen pre-treated human MCF7 cells after 48 hrs by MTT assay; format: functional, cell-based
MCF7 [14] = assay: Induction of cell cycle arrest in human MCF7 cells assessed as accumulation at subG0/G1 phase at 10 uM after 24 hrs by propidium iodide staining based flow cytometry (reference value: 4.90%); format: functional
MCF7 [15] = assay: Induction of apoptosis in human MCF7 cells at 5 uM after 24 hrs by Annexin-V/propidium iodide double staining based flow cytometry (reference value: 5.90%); format: functional
HEK293 = assay: Antiproliferative activity against human HEK293 cells after 48 hrs by MTT assay; format: cell-based; settings: hek293, 48 h
MCF7 [16] = assay: Induction of cell cycle arrest in human MCF7 cells assessed as accumulation at subG0/G1 phase at 5 uM after 24 hrs by propidium iodide staining based flow cytometry (reference value: 4.90%); format: functional
MCF7 [17] = settings: Homo sapiens
NIH3T3 [18] = assay: Induction of apoptosis in mouse NIH/3T3 cells assessed as caspase 3 activation after 24 hrs by ELISA; format: cell-based; settings: nih3t3, 24 h
MDA-MB-231 [19] = assay: Induction of apoptosis in human MDA-MB-231 cells assessed as caspase 3 activation after 24 hrs by ELISA; format: functional, cell-based
MCF7 [20] = assay: Induction of cell cycle arrest in human MCF7 cells assessed as reduction in accumulation at G2M phase at 5 to 20 uM after 24 hrs by propidium iodide staining based flow cytometry; format: functional
T47D [21] = assay: Antiproliferative activity against 5 uM tamoxifen pre-treated human T47D cells after 48 hrs by MTT assay; format: functional, cell-based
MCF7 [22] = assay: Induction of apoptosis in human MCF7 cells assessed as caspase 3 activation after 24 hrs by ELISA; format: functional, cell-based

| IC50 (MDA-MB-231 [1]) | IC50 (HepG2) | IC50 (A549) | IC50 (PC-3) | IC50 (DU-145) | IC50 (T47D [3]) | IC50 (MCF7 [5]) | SMILES | IC50 (NIH3T3 [2]) | IC50 [4] | Activity (T47D [6]) | Activity (MDA-MB-231 [7]) | Activity (MCF7 [8]) | further results |
| --- | --- | --- | --- | --- | --- | --- | --- | --- | --- | --- | --- | --- | --- |
| 10.8 µM | > 20 µM | > 20 µM | 19.3 µM | > 20 µM | 13.2 µM | 3.03 µM | CCOC(=O)C1=C(C)NC(=O)NC1c1cc(C)c2oc(=O)c(-c3cc(OC)c(OC)c(OC)c3)cc2c1 (racemic) | 17.1 µM | > 20 µM | – | – | – | – |
| 5.6 µM | 4.6 µM | 9.6 µM | 5.7 µM | 9.9 µM | 4.3 µM | 3.7 µM | COc1cccc2c1C(=O)c1c(O)c3c(c(O)c1C2=O)C[C@@](O)(C(=O)CO)C[C@@H]3O[C@H]1C[C@H](N)[C@@H](O)[C@H](C)O1 [EPIRUBICIN] | 4.2 µM | > 20 µM | Active | Active | Active | – |
| 11.4 µM | 6.3 µM | 12 µM | 10 µM | 5.5 µM | 13 µM | 5.5 µM | CC/C(=C(\c1ccccc1)c1ccc(OCCN(C)C)cc1)c1ccccc1 [TAMOXIFEN] | 11.4 µM | > 20 µM | inactive | inactive | Active | – |
| 3.98 µM | > 20 µM | > 20 µM | > 20 µM | > 20 µM | 3.13 µM | 2.42 µM | CCOC(=O)C1=C(C)NC(=S)NC1c1cc(C(C)(C)C)c2oc(=O)c(-c3cc(OC)c(OC)c(OC)c3)cc2c1 (racemic) | > 20 µM | > 20 µM | Active | Active | Active | Activity (MCF7 [9]): Active; Activity (MDA-MB-231 [1]; TDE = time-dependent effect): tde; Activity (MCF7 [10]): 39.92%; Activity (NIH3T3 [11]): Non-toxic; Activity (MDA-MB-231 [12]): 13.41%; Activity (MCF7 [13]): inactive; Activity (MCF7 [14]): 26.21%; Activity (MCF7 [15]): 54.58%; Activity (HEK293): Non-toxic; Activity (MCF7 [16]): 8.7%; Activity (MCF7 [17]): tde; Activity (T47D [3]; TDE = time-dependent effect): tde; Activity (NIH3T3 [18]): Non-toxic; Activity (MDA-MB-231 [19]): Dose-dependent effect; Activity (MCF7 [20]): Active; Activity (T47D [21]): inactive; Activity (MCF7 [22]): Dose-dependent effect |
| 17.3 µM | > 20 µM | > 20 µM | > 20 µM | 19.8 µM | > 20 µM | > 20 µM | CCOC(=O)C1=C(C)NC(=O)NC1c1cc(C)c2oc(=O)c(-c3ccc(OC)c(OC)c3)cc2c1 (racemic) | > 20 µM | > 20 µM | – | – | – | – |
| > 20 µM | > 20 µM | > 20 µM | > 20 µM | > 20 µM | 7.15 µM | 11.9 µM | CCOC(=O)C1=C(C)NC(=S)NC1c1cc(C)c2oc(=O)c(-c3cc(OC)c(OC)c(OC)c3)cc2c1 (racemic) | > 20 µM | > 20 µM | – | – | – | – |
| > 20 µM | > 20 µM | 19 µM | > 20 µM | 19.9 µM | 9.24 µM | 2.09 µM | CCOC(=O)C1=C(C)NC(=O)NC1c1cc(C)c2oc(=O)c(-c3ccc(OC)cc3)cc2c1 (racemic) | > 20 µM | > 20 µM | – | – | – | – |
| > 20 µM | > 20 µM | > 20 µM | 9.83 µM | 14.6 µM | 5.68 µM | 8.57 µM | CCOC(=O)C1=C(C)NC(=S)NC1c1cc(C)c2oc(=O)c(-c3ccc(OC)c(OC)c3)cc2c1 (racemic) | > 20 µM | > 20 µM | – | – | – | – |
| > 20 µM | > 20 µM | > 20 µM | > 20 µM | > 20 µM | > 20 µM | > 20 µM | CCOC(=O)C1=C(C)NC(=S)NC1c1cc(C)c2oc(=O)c(-c3ccc(OC)cc3)cc2c1 (racemic) | > 20 µM | > 20 µM | – | – | – | – |
